Values joined by “and” are separate entries in the source; they are usually repeats but may differ in a detail not shown here. Equal values may be shown once. Toxic doses and inconclusive results are not listed. No stated cut-off is given here; in the data, active means T/C of 150% or more; inactive means T/C below 125%.
System: L1210 leukemia ip in BDF1 mice, survival T/C
Test: NCI In Vivo Anticancer Drug Screen. Data for tumor model L1210 Leukemia (intraperitoneal) in B6D2F1 (BDF1) mice
Details: endpoint: mean survival time, higher = longer survival
Procedure, shortened: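 Tumor cells were implanted, animals were treated, and survival was followed. The result divides the treated measurement by the vehicle-control measurement.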

[1] = dose: 100.0 mg/kg/injection, schedule: Q04DX002 (ip), vehicle: Klucel (hydroxypropylcellulose) (HPC)
[2] = dose: 200.0 mg/kg/injection, schedule: Q04DX002 (ip), vehicle: Klucel (hydroxypropylcellulose) (HPC)
[3] = dose: 400.0 mg/kg/injection, schedule: Q04DX002 (ip), vehicle: Klucel (hydroxypropylcellulose) (HPC)
[4] = dose: 50.0 mg/kg/injection, schedule: Q01DX009 (ip), vehicle: saline with Tween-80
[5] = dose: 100.0 mg/kg/injection, schedule: Q01DX009 (ip), vehicle: saline with Tween-80
[6] = dose: 200.0 mg/kg/injection, schedule: Q01DX009 (ip), vehicle: saline with Tween-80
[7] = dose: 25.0 mg/kg/injection, schedule: Q01DX009 (ip), vehicle: Klucel (hydroxypropylcellulose) (HPC)
[8] = dose: 50.0 mg/kg/injection, schedule: Q01DX009 (ip), vehicle: saline
[9] = dose: 100.0 mg/kg/injection, schedule: Q01DX009 (ip), vehicle: saline
[10] = dose: 200.0 mg/kg/injection, schedule: Q01DX009 (ip), vehicle: saline
[11] = dose: 100.0 mg/kg/injection, schedule: Q04DX003 (ip), vehicle: Klucel (hydroxypropylcellulose) (HPC)
[12] = dose: 200.0 mg/kg/injection, schedule: Q04DX003 (ip), vehicle: Klucel (hydroxypropylcellulose) (HPC)
[13] = dose: 400.0 mg/kg/injection, schedule: Q04DX003 (ip), vehicle: Klucel (hydroxypropylcellulose) (HPC)
[14] = dose: 50.0 mg/kg/injection, schedule: Q01DX001 (ip), vehicle: saline
[15] = dose: 25.0 mg/kg/injection, schedule: Q04DX003 (ip), vehicle: saline
[16] = dose: 100.0 mg/kg/injection, schedule: Q01DX001 (ip), vehicle: saline
[17] = dose: 12.0 mg/kg/injection, schedule: Q04DX003 (ip), vehicle: saline

Measured: T/C

COP(=O)(CN1C(=O)c2ccccc2C1=O)c1ccccc1 (stereo not given)
inactive: [1] 94 % of control | [2] 94 % of control | [3] 101 % of control

CCCCN(CCCC)CCCCO
inactive: [4] 116 % of control | [5] 101 % of control | dose: 100.0 mg/kg/injection, schedule: Q04DX003 (ip), vehicle: saline with Tween-80 102 % of control | [6] 101 % of control | dose: 200.0 mg/kg/injection, schedule: Q04DX003 (ip), vehicle: saline with Tween-80 96 % of control

ICC1OCOC2C(CI)OCOC12 (stereo not given)
inactive: dose: 100.0 mg/kg/injection, schedule: Q01DX001 (ip), vehicle: other 103 % of control | dose: 200.0 mg/kg/injection, schedule: Q01DX001 (ip), vehicle: other 93 % of control | dose: 400.0 mg/kg/injection, schedule: Q01DX001 (ip), vehicle: other 103 % of control

O=Nc1c(O)ccc2ccccc12
inactive: dose: 3.12 mg/kg/injection, schedule: Q01DX009 (ip), vehicle: Klucel (hydroxypropylcellulose) (HPC) 90 % of control | dose: 5.0 mg/kg/injection, schedule: Q01DX001 (ip), vehicle: saline 98 % of control | dose: 6.25 mg/kg/injection, schedule: Q01DX009 (ip), vehicle: Klucel (hydroxypropylcellulose) (HPC) 95 % of control | dose: 10.0 mg/kg/injection, schedule: Q01DX001 (ip), vehicle: saline 104 % of control | dose: 12.5 mg/kg/injection, schedule: Q01DX009 (ip), vehicle: Klucel (hydroxypropylcellulose) (HPC) 92 % of control | dose: 20.0 mg/kg/injection, schedule: Q01DX001 (ip), vehicle: saline 95 % of control | dose: 25.0 mg/kg/injection, schedule: Q01DX001 (ip), vehicle: saline with Tween-80 94 % of control | [7] 104 % of control | dose: 40.0 mg/kg/injection, schedule: Q01DX001 (ip), vehicle: saline 101 % of control | dose: 50.0 mg/kg/injection, schedule: Q01DX001 (ip), vehicle: saline with Tween-80 104 % of control | dose: 80.0 mg/kg/injection, schedule: Q01DX001 (ip), vehicle: saline 106 % of control | dose: 100.0 mg/kg/injection, schedule: Q01DX001 (ip), vehicle: saline with Tween-80 91 % of control

CC(C)NNC(=O)C(N)CO (stereo not given)
inactive: dose: 25.0 mg/kg/injection, schedule: Q01DX009 (ip), vehicle: saline 91 % of control | [8] 97 % of control | [9] 105 % of control | [10] 97 % of control | dose: 400.0 mg/kg/injection, schedule: Q01DX009 (ip), vehicle: saline 107 % of control

ClCCCN(CCCCl)c1ccc(C=Nc2cccc(Cl)c2)c(Cl)c1
inactive: [11] 101 % of control | [12] 102 % of control | [13] 95 % of control

Cc1ccc(C(=O)C=Nc2ccc(S(N)(=O)=O)cc2)cc1
inactive: dose: 12.5 mg/kg/injection, schedule: Q04DX002 (ip), vehicle: Klucel (hydroxypropylcellulose) (HPC) 94 % of control | dose: 25.0 mg/kg/injection, schedule: Q04DX002 (ip), vehicle: Klucel (hydroxypropylcellulose) (HPC) 115 % of control | dose: 50.0 mg/kg/injection, schedule: Q04DX002 (ip), vehicle: Klucel (hydroxypropylcellulose) (HPC) 97 % of control

Clc1ccc(N2CCN(c3ccc(Cl)cc3)CC2)cc1
inactive: [11] 88 % of control | [12] 101 % of control | [13] 87 % of control

COc1ccc(OC=O)cc1OC
inactive: [8] 98 % of control | [9] 102 % of control | dose: 100.0 mg/kg/injection, schedule: Q04DX003 (ip), vehicle: acetone 97 % of control | [10] 101 % of control | dose: 200.0 mg/kg/injection, schedule: Q04DX003 (ip), vehicle: acetone 107 % of control

CCCCNC(C)(C)C(SSS(=O)(=O)O)c1ccc(Cl)cc1 (stereo not given)
inactive: [5] 96 % of control | [6] 103 % of control | dose: 400.0 mg/kg/injection, schedule: Q01DX009 (ip), vehicle: saline with Tween-80 92 % of control

O=C(O)COc1c(Br)cc(F)cc1Br
inactive: dose: 100.0 mg/kg/injection, schedule: Q04DX002 (ip), vehicle: other 103 % of control | dose: 200.0 mg/kg/injection, schedule: Q04DX002 (ip), vehicle: other 109 % of control and 90 % of control | dose: 400.0 mg/kg/injection, schedule: Q04DX002 (ip), vehicle: other 100 % of control and 86 % of control

Cc1cc(OC(=O)Nc2ccc(Cl)cc2C(F)(F)F)c(C)cc1Cl
inactive: [4] 98 % of control | [5] 95 % of control | [6] 109 % of control

CCCCCCCC(CCCCCC)CCCCCCC
inactive: dose: 50.0 mg/kg/injection, schedule: Q04DX002 (ip), vehicle: saline with Tween-80 89 % of control | dose: 100.0 mg/kg/injection, schedule: Q04DX002 (ip), vehicle: saline with Tween-80 110 % of control | dose: 200.0 mg/kg/injection, schedule: Q04DX002 (ip), vehicle: saline with Tween-80 103 % of control | dose: 400.0 mg/kg/injection, schedule: Q04DX002 (ip), vehicle: saline with Tween-80 106 % of control

CC[n+]1c(C)ccc2ccccc21
inactive: [7] 91 % of control | dose: 25.0 mg/kg/injection, schedule: Q04DX003 (ip), vehicle: Klucel (hydroxypropylcellulose) (HPC) 99 % of control | [14] 95 % of control | dose: 50.0 mg/kg/injection, schedule: Q01DX009 (ip), vehicle: Klucel (hydroxypropylcellulose) (HPC) 91 % of control | dose: 50.0 mg/kg/injection, schedule: Q04DX003 (ip), vehicle: Klucel (hydroxypropylcellulose) (HPC) 99 % of control

O=[N+]([O-])c1cccc(S(=O)(=O)SC(Cl)(Cl)Cl)c1
inactive: [15] 96 % of control

CCn1[nH]cc2c3nnc(-c4ccccc4)c3cnc21
inactive: [1] 98 % of control | [2] 92 % of control | [3] 95 % of control

CCOC(=O)NC(CC)NC(=O)OCC
inactive: [16] 101 % of control | dose: 200.0 mg/kg/injection, schedule: Q01DX001 (ip), vehicle: saline 103 % of control | dose: 400.0 mg/kg/injection, schedule: Q01DX001 (ip), vehicle: saline 97 % of control

CC1(C)CS(=O)(=O)CC1=O
inactive: dose: 3.0 mg/kg/injection, schedule: Q01DX009 (ip), vehicle: other 103 % of control | dose: 6.0 mg/kg/injection, schedule: Q01DX009 (ip), vehicle: other 102 % of control | dose: 12.0 mg/kg/injection, schedule: Q01DX009 (ip), vehicle: other 94 % of control | [17] 98 % of control | dose: 25.0 mg/kg/injection, schedule: Q01DX009 (ip), vehicle: other 100 % of control | [15] 101 % of control | dose: 50.0 mg/kg/injection, schedule: Q01DX009 (ip), vehicle: other 96 % of control | dose: 50.0 mg/kg/injection, schedule: Q04DX003 (ip), vehicle: saline 106 % of control

C/C(Cc1c[nH]c2ccccc12)=N/NC(N)=S
inactive: [14] 100 % of control | [16] 100 % of control

Cc1cccc(CO)c1NC(=O)NCCCl
inactive: [11] 99 % of control | [12] 110 % of control | [13] 103 % of control

O=C(OC(CC[P+](c1ccccc1)(c1ccccc1)c1ccccc1)(C(=O)c1ccccc1)c1ccccc1)c1ccccc1 (stereo not given)
inactive: dose: 3.0 mg/kg/injection, schedule: Q04DX003 (ip), vehicle: saline 98 % of control | dose: 6.0 mg/kg/injection, schedule: Q04DX003 (ip), vehicle: saline 103 % of control | [17] 94 % of control | dose: 15.0 mg/kg/injection, schedule: Q01DX001 (ip), vehicle: carboxymethylcellulose (CMC) 90 % of control | dose: 30.0 mg/kg/injection, schedule: Q01DX001 (ip), vehicle: carboxymethylcellulose (CMC) 98 % of control | dose: 60.0 mg/kg/injection, schedule: Q01DX001 (ip), vehicle: carboxymethylcellulose (CMC) 95 % of control | dose: 75.0 mg/kg/injection, schedule: Q01DX001 (ip), vehicle: carboxymethylcellulose (CMC) 88 % of control

Nc1nc2c(ncn2C2OC(COP(=O)(O)OC3C(COP(=O)(O)O)OC(n4cnc5c(=O)[nH]c(N)nc54)C3O)C(O)C2O)c(=O)[nH]1 (stereo not given) (tested in a mixture with another compound)
inactive: dose: 2.5 mg/kg/injection, schedule: Q01DX009 (ip), vehicle: other 108 % of control | dose: 5.0 mg/kg/injection, schedule: Q01DX009 (ip), vehicle: other 105 % of control | dose: 10.0 mg/kg/injection, schedule: Q01DX009 (ip), vehicle: other 111 % of control

Source: PubChem BioAssay AID248 (DTP/NCI, 2004)
